Source: paper PMC5736175, “Nicotinic alpha 7 receptor agonists EVP-6124 and BMS-933043, attenuate scopolamine-induced deficits in visuo-spatial paired associates learning” (PLoS ONE, 2017)
Several values for one entry are separate records, joined by “and”; a condition that tells them apart may be missing. Equal values may be shown once.

System: scopolamine-treated cynomolgus monkeys
Experiment: Scopolamine-induced impairment of vsPAL task performance, treatment + scopolamine
Format: in vivo, cynomolgus monkeys (Macaca Fasicularis)
Conditions: for Eventual Correct, 2 Stimuli / % Completion / Average Response Latency (Avg Rsp Lat) / Eventual Correct, 3 Stimuli / Eventual Correct, 4 Stimuli / Eventual Correct, Overall Mean % Correct / Initial Correct, 3 Stimuli / Initial Correct, 4 Stimuli / Initial Correct, Overall Mean % Correct / Initial correct, 2 Stimuli: im + Scopolamine
[1] = BMS-933043 0.1 mg/kg, individual animals, 0.1 mg/kg
[2] = BMS-933043 0.3 mg/kg, group MEAN
[3] = BMS-933043 0.3 mg/kg, individual animals, 0.3 mg/kg
[4] = BMS-933043 1.0 mg/kg, group MEAN
[5] = BMS-933043 1.0 mg/kg, individual animals, 1 mg/kg
[6] = all doses of the study, for EVP-6124 study (1)
[7] = compound 0.03 mg/kg i.m. + Scopolamine
[8] = compound 0.10 mg/kg i.m. + Scopolamine
[9] = compound 0.30 mg/kg i.m. + Scopolamine
[10] = compound 1.00 mg/kg i.m. + Scopolamine

In the case of `c1cn(-c2cc(NC3=NC[C@@]4(CN5CCC4CC5)O3)ncn2)cn1` [BMS-933043, (2R)-N-(6-(1H-imidazol-1-yl)-4-pyrimidinyl)-4'H-spiro[4-azabicyclo[2.2.2]octane-2,5'-[1, 3]oxazol]-2'-amine], the “Eventual Correct, 2 Stimuli” value (BMS-933043 0.1 mg/kg, individual animals) is reported as 100.0%, the “% Completion” value [1] is reported as 83.0% and 98.5% and 77.8% and 81.4% and 55.7% and 97.1% and 100.0% and the “Average Response Latency (Avg Rsp Lat)” value [1] is reported as 1783.8 ms and 1549.9 ms and 1223.3 ms and 2854.5 ms and 1899.4 ms and 1717.2 ms and 2683.0 ms. For the same molecule, the “Eventual Correct, 3 Stimuli” value [1] was 90.0% and 100.0%, the “Eventual Correct, 4 Stimuli” value [1] was 90.0% and 80.0% and 70.0% and 60.0% and 100.0% and the “Eventual Correct, Overall Mean % Correct” value [1] was 93.3% and 90.0% and 86.7% and 100.0% and 96.7%. The “Initial Correct, 3 Stimuli” value [1] was 80.0% and 60.0% and 70.0% and 90.0% and 100.0%, the “Initial Correct, 4 Stimuli” value [1] was 50.0% and 10.0% and 40.0% and 30.0% and 70.0% and the “Initial Correct, Overall Mean % Correct” value [1] was 76.7% and 53.3% and 66.7% and 90.0% and 60.0%. The “Initial correct, 2 Stimuli” value [1] was 100.0% and 90.0% and 80.0%, the “% Completion” value [2] was 86.7% and the “Average Response Latency (Avg Rsp Lat)” value [2] was 1774.3 ms. For the same molecule, the “Eventual Correct, 2 Stimuli” value [2] was 100.0%, the “Eventual Correct, 3 Stimuli” value [2] was 94.3% and the “Eventual Correct, 4 Stimuli” value [2] was 90.0%. For the same molecule, the “Eventual Correct, Overall Mean % Correct” value [2] was 94.3%, the “Initial Correct, 3 Stimuli” value [2] was 68.6% and the “Initial Correct, 4 Stimuli” value [2] was 45.0%. For the same molecule, the “Initial Correct, Overall Mean % Correct” value [2] was 67.6%, the “Initial correct, 2 Stimuli” value [2] was 91.4% and the “Eventual Correct, 2 Stimuli” value (BMS-933043 0.3 mg/kg, individual animals) was 100.0%. The “% Completion” value [3] was 86.3% and 100.0% and 97.7% and 32.1% and 95.8% and 95.1%, the “Average Response Latency (Avg Rsp Lat)” value [3] was 1690.5 ms and 1666.2 ms and 1269.7 ms and 2215.8 ms and 1344.9 ms and 1971.0 ms and 2262.1 ms and the “Eventual Correct, 3 Stimuli” value [3] was 100.0% and 60.0%. The “Eventual Correct, 4 Stimuli” value [3] was 80.0% and 100.0% and 90.0%, the “Eventual Correct, Overall Mean % Correct” value [3] was 93.3% and 100.0% and 80.0% and 96.7% and the “Initial Correct, 3 Stimuli” value [3] was 80.0% and 100.0% and 60.0% and 10.0% and 90.0%. For the same molecule, the “Initial Correct, 4 Stimuli” value [3] was 60.0% and 40.0% and 50.0% and 30.0%, the “Initial Correct, Overall Mean % Correct” value [3] was 80.0% and 73.3% and 83.3% and 30.0% and 60.0% and the “Initial correct, 2 Stimuli” value [3] was 100.0% and 50.0% and 90.0%. For the same molecule, the “% Completion” value [4] was 71.6%, the “Average Response Latency (Avg Rsp Lat)” value [4] was 2029.0 ms and the “Eventual Correct, 2 Stimuli” value [4] was 100.0%. The “Eventual Correct, 3 Stimuli” value [4] was 97.1%, the “Eventual Correct, 4 Stimuli” value [4] was 65.7% and the “Eventual Correct, Overall Mean % Correct” value [4] was 87.6%. The “Initial Correct, 3 Stimuli” value [4] was 71.4%, the “Initial Correct, 4 Stimuli” value [4] was 41.4% and the “Initial Correct, Overall Mean % Correct” value [4] was 69.5%. The “Initial correct, 2 Stimuli” value [4] was 95.7%, the “Eventual Correct, 2 Stimuli” value (BMS-933043 1.0 mg/kg, individual animals) was 100.0% and the “% Completion” value [5] was 72.7% and 100.0% and 68.1% and 56.9% and 46.1% and 57.8%. The “Average Response Latency (Avg Rsp Lat)” value [5] was 2028.1 ms and 1536.5 ms and 1283.2 ms and 2484.6 ms and 1934.3 ms and 2639.0 ms and 2297.3 ms, the “Eventual Correct, 3 Stimuli” value [5] was 90.0% and 100.0% and the “Eventual Correct, 4 Stimuli” value [5] was 70.0% and 100.0% and 40.0% and 50.0% and 30.0%. The “Eventual Correct, Overall Mean % Correct” value [5] was 86.7% and 96.7% and 80.0% and 83.3% and 76.7% and 90.0% and 100.0%, the “Initial Correct, 3 Stimuli” value [5] was 50.0% and 80.0% and 90.0% and 70.0% and the “Initial Correct, 4 Stimuli” value [5] was 40.0% and 60.0% and 20.0% and 30.0% and 80.0%. The “Initial Correct, Overall Mean % Correct” value [5] was 63.3% and 76.7% and 60.0% and 86.7%, the “Initial correct, 2 Stimuli” value [5] was 100.0% and 90.0% and the “Holm-Sidak Post-Hoc, Treatment+Scopolamine differs from Vehicle+Scopolamine: percent correct on initial attempt, 3-stimuli” value (all doses of the study) was “n.s”. For the same molecule, the “Holm-Sidak Post-Hoc, Treatment+Scopolamine differs from Vehicle+Scopolamine: Choice Response Latency” value [6] was “n.s”, the “Holm-Sidak Post-Hoc, Treatment+Scopolamine differs from Vehicle+Scopolamine: Percent Task Completed” value [6] was “n.s” and the “Holm-Sidak Post-Hoc, Treatment+Scopolamine differs from Vehicle+Scopolamine: percent correct on initial attempt, 2-stimuli” value [6] was “n.s”. The “Holm-Sidak Post-Hoc, Treatment+Scopolamine differs from Vehicle+Scopolamine: percent correct on initial attempt, 4 stimuli” value [6] was “n.s”, the “Percent Correct on Initial Attempt (SEM), 2 stimuli” value (shortened to “Percent Correct … (SEM), 2 stimuli”) [7] was 90.0% (3.1%) and the “Percent Correct on Initial Attempt (SEM), 3 stimuli” value (“Percent Correct … (SEM), 3 stimuli” below) [7] was 58.6% (8.0%). The “Percent Correct on Initial Attempt (SEM), 4 stimuli” value (from here on “Percent Correct … (SEM), 4 stimuli”) [7] was 38.3% (9.8%), the “Percent Correct … (SEM), 2 stimuli” value [8] was 88.6% (3.4%) and the “Percent Correct … (SEM), 3 stimuli” value [8] was 75.7% (5.7%). The “Percent Correct … (SEM), 4 stimuli” value [8] was 35.7% (8.1%), the “Percent Correct … (SEM), 2 stimuli” value [9] was 91.4% (7.0%) and the “Percent Correct … (SEM), 3 stimuli” value [9] was 68.6% (11.2%). The “Percent Correct … (SEM), 4 stimuli” value [9] was 45.0% (5.6%), the “Percent Correct … (SEM), 2 stimuli” value [10] was 95.7% (2.0%) and the “Percent Correct … (SEM), 3 stimuli” value [10] was 71.4% (5.9%). For the same molecule, the “Percent Correct … (SEM), 4 stimuli” value [10] was 41.4% (8.3%), the “dose/exposure range across which efficacy was retained” value (eventual accuracy, scopolamine vsPAL) was no less than 10 fold and the “Cohen's D values at maximally efficacious doses” value (large treatment effect sizes) was greater than 8.
